According to ChEMBL document CHEMBL5380773, “Novel Feleucin-K3-Derived Peptides Modified with Sulfono-γ-AA Building Blocks Targeting Pseudomonas aeruginosa and Methicillin-Resistant Staphylococcus aureus Infections” (J Med Chem, 2023):
Calls of active or inactive are those of the source. The calls are words filed in the database; no cut-off is given here. Numbered stars: 1 amine (or outer) side, 2 acyl side, 3 side chain; on linkers, the order of the positions; unused ones are H or OH. Square brackets hold non-standard residues; d marks the D form. Peptide text beside a SMILES is read from it. * marks the point of attachment. X26 = O=C(O)c1cc(NC(=S)c2ccc(S(=O)(=O)*)cc2)ccc1-c1c2ccc(=O)cc-2oc2cc(O)ccc12; X18 = NC(=O)CN(C[C@H](Cc1ccccc1)N*)S(=O)(=O)c1ccc(Cl)cc1; Benzenesulfonyl(2-NO2) = O=[N+]([O-])c1ccccc1S(=O)(=O)*; Benzenesulfonyl(4-F) = O=S(=O)(c1ccc(F)cc1)*; X3 = N[C@@H](Cc1ccccc1)CN(CC(=O)[*:2])[*:1]; X2 = CC(C)C[C@H](N)CN(CC(=O)[*:2])[*:1]; X20 = O=S(=O)(c1ccc(Cl)cc1)*; Tos = Cc1ccc(S(=O)(=O)*)cc1; X4 = O=S(=O)(c1cccc(Cl)c1)*

Legend:
Cell membrane = experiment: Induction of membrane disruption in Pseudomonas aeruginosa ATCC 27853 after 30 mins by confocal laser scanning microscopic analysis; assay type: subcellular
Staphylococcus aureus [1] = experiment: Induction of resistant development in Staphylococcus aureus ATCC 25923 assessed as fold increase by serial passage assay; assay type: functional
Staphylococcus aureus [2] = experiment: Induction of resistant development in methicillin resistant Staphylococcus aureus ATCC 33591 assessed as fold increase by serial passage assay; assay type: functional
Erythrocyte = experiment: Hemolytic activity against mouse red blood cells incubated for 1 hr; assay type: toxicity, cell-based
[3] = Stability in mouse serum assessed as half life incubated for 6 hrs by HPLC analysis; assay type: ADME, cell-free
Pseudomonas aeruginosa [4] = experiment: Antimicrobial activity against multidrug resistant Pseudomonas aeruginosa ATCC 27853 assessed as fold increase incubated for 18 hrs by microdilution method; assay type: functional
Pseudomonas aeruginosa [5] = experiment: Induction of resistant development in Pseudomonas aeruginosa ATCC 27853 assessed as fold increase in MIC after 20 days; assay type: functional; conditions: time 20 day
Staphylococcus aureus [6] = experiment: Antimicrobial activity against methicillin resistant Staphylococcus aureus ATCC 33591 infected in BALB/c mouse assessed as reduction in sessile bacteria attached on catheters surface at 0.25 to 1 mg/kg infected with bacteria for 2 hrs prior to compound addition on 1, 24 and 48 hrs and measured after 72 hrs […]; assay type: functional, organism-based; conditions: dose 0.25-1 mg/kg

For CC(C)C[C@H](N)CN(CC(=O)N[C@@H](CCCCN)C(=O)N[C@@H](CC(C)C)C(=O)N[C@@H](CC(C)C)C(=O)N[C@@H](CCCCN)C(=O)N[C@@H](CCCCN)C(=O)N[C@@H](CC(C)C)C(=O)N[C@@H](CC(C)C)C(N)=O)S(=O)(=O)c1ccc(C(=S)Nc2ccc(-c3c4ccc(=O)cc-4oc4cc(O)ccc34)c(C(=O)O)c2)cc1 (X26-[X2]KLLKKLL-NH2), the Activity (Cell membrane) was “Active”.

With CC1(C)S[C@@H]2[C@H](NC(=O)[C@H](N)c3ccc(O)cc3)C(=O)N2[C@H]1C(=O)O [AMOXICILLIN] the “fold change (FC)” value (Staphylococcus aureus [1]) was 4096 and the “fold change (FC)” value (Staphylococcus aureus [2]) was 4096.

Molecule Cc1ccc(S(=O)(=O)N(CC(=O)N[C@@H](CCCCN)C(=O)N[C@@H](CC(C)C)C(=O)N[C@@H](CC(C)C)C(=O)N[C@@H](CCCCN)C(=O)N[C@@H](CCCCN)C(=O)N[C@@H](CC(C)C)C(=O)N[C@@H](CC(C)C)C(N)=O)C[C@@H](N)Cc2ccccc2)cc1 (Tos-[X3]KLLKKLL-NH2) has an MHC (Erythrocyte) of 256 µg/mL and a half-life [3] of 6.97 h.

For C[C@@H](O)[C@H]1C(=O)N2C(C(=O)O)=C(SCCNC=N)C[C@H]12 [IMIPENEM ANHYDROUS], the “fold change (FC)” value (Pseudomonas aeruginosa [4]) was 1 and the “fold change (FC)” value (Pseudomonas aeruginosa [5]) was 16.

Work on H-FLKLLKKLL-NH2 yielded an MHC (Erythrocyte) of 256 µg/mL and a half-life [3] of 1.28 h.

With CN[C@H](CC(C)C)C(=O)N[C@H]1C(=O)N[C@@H](CC(N)=O)C(=O)N[C@H]2C(=O)N[C@H]3C(=O)N[C@H](C(=O)N[C@H](C(=O)O)c4cc(O)cc(O)c4-c4cc3ccc4O)[C@H](O)c3ccc(c(Cl)c3)Oc3cc2cc(c3O[C@@H]2O[C@H](CO)[C@@H](O)[C@H](O)[C@H]2O[C@H]2C[C@](C)(N)[C@H](O)[C@H](C)O2)Oc2ccc(cc2Cl)[C@H]1O the Activity (Staphylococcus aureus [6]) was “Active”.

For CC(C)(O/N=C(\C(=O)N[C@@H]1C(=O)N2C(C(=O)[O-])=C(C[n+]3ccccc3)CS[C@H]12)c1csc(N)n1)C(=O)O [CEFTAZIDIME], the “fold change (FC)” value (Pseudomonas aeruginosa [5]) was 256.

In the case of CC(C)C[C@H](NC(=O)[C@H](CC(C)C)NC(=O)[C@H](CCCCN)NC(=O)[C@H](CC(C)C)NC(=O)[C@@H](N)Cc1ccccc1)C(=O)N[C@@H](CCCCN)C(=O)N[C@@H](CCCCN)C(=O)N[C@@H](Cc1ccccc1)CN(CC(N)=O)S(=O)(=O)c1ccc(Cl)cc1 (H-FLKLLKK-X18), the MHC (Erythrocyte) is reported as 128 µg/mL.

CC(C)C[C@H](NC(=O)[C@H](CC(C)C)NC(=O)[C@H](CCCCN)NC(=O)[C@H](CCCCN)NC(=O)[C@H](CC(C)C)NC(=O)[C@H](CC(C)C)NC(=O)[C@H](CCCCN)NC(=O)CN(C[C@@H](N)Cc1ccccc1)S(=O)(=O)c1ccc(Cl)cc1)C(N)=O (X20-[X3]KLLKKLL-NH2) gave an MHC (Erythrocyte) of 64 µg/mL.

With CC(C)C[C@H](N)CN(CC(=O)N[C@@H](CCCCN)C(=O)N[C@@H](CC(C)C)C(=O)N[C@@H](CC(C)C)C(=O)N[C@@H](CCCCN)C(=O)N[C@@H](CCCCN)C(=O)N[C@@H](CC(C)C)C(=O)N[C@@H](CC(C)C)C(N)=O)S(=O)(=O)c1ccccc1[N+](=O)[O-] ({Benzenesulfonyl(2-NO2)}-[X2]KLLKKLL-NH2) the MHC (Erythrocyte) was 256 µg/mL.

CC(C)C[C@H](N)CN(CC(=O)N[C@@H](CCCCN)C(=O)N[C@@H](CC(C)C)C(=O)N[C@@H](CC(C)C)C(=O)N[C@@H](CCCCN)C(=O)N[C@@H](CCCCN)C(=O)N[C@@H](CC(C)C)C(=O)N[C@@H](CC(C)C)C(N)=O)S(=O)(=O)c1cccc(Cl)c1 (X4-[X2]KLLKKLL-NH2) gave an MHC (Erythrocyte) of 256 µg/mL.

Work on Cc1ccc(S(=O)(=O)N(CC(=O)N[C@@H](CCCCN)C(=O)N[C@@H](CC(C)C)C(=O)N[C@@H](CC(C)C)C(=O)N[C@@H](CCCCN)C(=O)N[C@@H](CCCCN)C(=O)N[C@@H](CC(C)C)C(=O)N[C@@H](CC(C)C)C(N)=O)C[C@@H](N)CC(C)C)cc1 (Tos-[X2]KLLKKLL-NH2) yielded an MHC (Erythrocyte) of 32 µg/mL.

In the case of CC(C)C[C@H](NC(=O)[C@H](CC(C)C)NC(=O)[C@H](CCCCN)NC(=O)[C@H](CCCCN)NC(=O)[C@H](CC(C)C)NC(=O)[C@H](CC(C)C)NC(=O)[C@H](CCCCN)NC(=O)CN(C[C@@H](N)Cc1ccccc1)S(=O)(=O)c1ccc(F)cc1)C(N)=O ({Benzenesulfonyl(4-F)}-[X3]KLLKKLL-NH2), the MHC (Erythrocyte) is reported as 256 µg/mL.

With C[C@H]1[C@H](NC(=O)/C(=N\OC(C)(C)C(=O)O)c2csc(N)n2)C(=O)N1S(=O)(=O)O [AZTREONAM] the “fold change (FC)” value (Pseudomonas aeruginosa [4]) was 2 and the “fold change (FC)” value (Pseudomonas aeruginosa [5]) was 32.
